According to PubChem BioAssay (NCI):
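Cells were grown in 96-well plates and exposed to each compound for 48 hours at five concentrations; endpoints were interpolated linearly between bracketing concentrations, or set to the highest concentration if not reached. The concentration for 50% growth inhibition is given as GI50. At the TGI there is no net growth.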

What was measured:
Experiment in all cases: NCI tumour cell line growth inhibition, 48 h
786-0 renal = tested on: 786-0 renal
A498 renal = tested on: A498 renal
A549 NSCLC = tested on: A549 NSCLC
ACHN renal = tested on: ACHN renal
BT-549 breast = tested on: BT-549 breast
CAKI-1 renal = tested on: CAKI-1 renal
CCRF-CEM leukemia = tested on: CCRF-CEM leukemia
COLO 205 colon = tested on: COLO 205 colon
DU-145 prostate = tested on: DU-145 prostate
EKVX NSCLC = tested on: EKVX NSCLC
HCC-2998 colon = tested on: HCC-2998 colon
HCT-116 colon = tested on: HCT-116 colon
HCT-15 colon = tested on: HCT-15 colon
HL-60(TB) leukemia = tested on: HL-60(TB) leukemia
HOP-62 NSCLC = tested on: HOP-62 NSCLC
HOP-92 NSCLC = tested on: HOP-92 NSCLC
HS 578T breast = tested on: HS 578T breast
HT29 colon = tested on: HT29 colon
IGROV1 ovarian = tested on: IGROV1 ovarian
K-562 leukemia = tested on: K-562 leukemia
KM12 colon = tested on: KM12 colon
LOX IMVI melanoma = tested on: LOX IMVI melanoma
M14 melanoma = tested on: M14 melanoma
MALME-3M melanoma = tested on: MALME-3M melanoma
MCF7 breast = tested on: MCF7 breast
MDA-MB-231 breast = tested on: MDA-MB-231 breast
MDA-MB-435 = tested on: MDA-MB-435
MOLT-4 leukemia = tested on: MOLT-4 leukemia
NCI-H226 lung = tested on: NCI-H226 lung
NCI-H23 lung = tested on: NCI-H23 lung
NCI-H460 lung = tested on: NCI-H460 lung
NCI-H522 lung = tested on: NCI-H522 lung
NCI/ADR-RES ovarian = tested on: NCI/ADR-RES ovarian
OVCAR-3 ovarian = tested on: OVCAR-3 ovarian
OVCAR-4 ovarian = tested on: OVCAR-4 ovarian
OVCAR-5 ovarian = tested on: OVCAR-5 ovarian
OVCAR-8 ovarian = tested on: OVCAR-8 ovarian
PC-3 prostate = tested on: PC-3 prostate
RPMI-8226 leukemia = tested on: RPMI-8226 leukemia
SF-268 CNS = tested on: SF-268 CNS
SF-295 CNS = tested on: SF-295 CNS
SF-539 CNS = tested on: SF-539 CNS
SK-MEL-2 melanoma = tested on: SK-MEL-2 melanoma
SK-MEL-28 melanoma = tested on: SK-MEL-28 melanoma
SK-MEL-5 melanoma = tested on: SK-MEL-5 melanoma
SK-OV-3 ovarian = tested on: SK-OV-3 ovarian
SN12C renal = tested on: SN12C renal
SNB-19 CNS = tested on: SNB-19 CNS
SNB-75 CNS = tested on: SNB-75 CNS
SR leukemia = tested on: SR leukemia
SW-620 colon = tested on: SW-620 colon
T-47D breast = tested on: T-47D breast
TK-10 renal = tested on: TK-10 renal
U251 CNS = tested on: U251 CNS
UACC-257 melanoma = tested on: UACC-257 melanoma
UACC-62 melanoma = tested on: UACC-62 melanoma
UO-31 renal = tested on: UO-31 renal

COc1cc(O)c2c3c(ccnc13)-c1ccccc1N2
GI50 (786-0 renal): 12.3 µM
TGI (786-0 renal): > 100 µM
GI50 (A498 renal): 22.4 µM
TGI (A498 renal): 42.2 µM
GI50 (A549 NSCLC): 2.37 µM
TGI (A549 NSCLC): > 100 µM
GI50 (ACHN renal): 3.02 µM
TGI (ACHN renal): 77.9 µM
GI50 (BT-549 breast): 15.4 µM
TGI (BT-549 breast): 60.2 µM
GI50 (CAKI-1 renal): 12.8 µM
TGI (CAKI-1 renal): 47.4 µM
GI50 (CCRF-CEM leukemia): 7.36 µM
TGI (CCRF-CEM leukemia): > 100 µM
GI50 (COLO 205 colon): 6.23 µM
TGI (COLO 205 colon): > 100 µM
GI50 (DU-145 prostate): 2.77 µM
TGI (DU-145 prostate): 35.7 µM
GI50 (EKVX NSCLC): 14.9 µM
TGI (EKVX NSCLC): 51.3 µM
GI50 (HCC-2998 colon): 4.39 µM
TGI (HCC-2998 colon): 12.3 µM
GI50 (HCT-116 colon): 2.4 µM
TGI (HCT-116 colon): > 100 µM
GI50 (HCT-15 colon): 2.35 µM
TGI (HCT-15 colon): 29.1 µM
GI50 (HL-60(TB) leukemia): 21.8 µM
TGI (HL-60(TB) leukemia): > 100 µM
GI50 (HOP-62 NSCLC): 10.4 µM
TGI (HOP-62 NSCLC): > 100 µM
GI50 (HOP-92 NSCLC): 24.7 µM
TGI (HOP-92 NSCLC): > 100 µM
GI50 (HS 578T breast): 15.5 µM
TGI (HS 578T breast): 92.8 µM
GI50 (HT29 colon): 5.11 µM
TGI (HT29 colon): > 100 µM
GI50 (IGROV1 ovarian): 10.8 µM
TGI (IGROV1 ovarian): > 100 µM
GI50 (K-562 leukemia): 28.1 µM
TGI (K-562 leukemia): > 100 µM
GI50 (KM12 colon): 5.06 µM
TGI (KM12 colon): 64.5 µM
GI50 (LOX IMVI melanoma): 3.2 µM
TGI (LOX IMVI melanoma): 31.7 µM
GI50 (M14 melanoma): 1.69 µM
TGI (M14 melanoma): 7.95 µM
GI50 (MALME-3M melanoma): 14.9 µM
TGI (MALME-3M melanoma): 46.5 µM
GI50 (MCF7 breast): 2.01 µM
TGI (MCF7 breast): 8.59 µM
GI50 (MDA-MB-231 breast): 5.19 µM
TGI (MDA-MB-231 breast): 71.9 µM
GI50 (MDA-MB-435): 1.9 µM
TGI (MDA-MB-435): 3.66 µM
GI50 (MOLT-4 leukemia): 21.2 µM
TGI (MOLT-4 leukemia): > 100 µM
GI50 (NCI-H226 lung): 18.6 µM
TGI (NCI-H226 lung): 91.9 µM
GI50 (NCI-H23 lung): 20.5 µM
TGI (NCI-H23 lung): > 100 µM
GI50 (NCI-H460 lung): 2.69 µM
TGI (NCI-H460 lung): > 100 µM
GI50 (NCI-H522 lung): 9.34 µM
TGI (NCI-H522 lung): 60 µM
GI50 (NCI/ADR-RES ovarian): 9.25 µM
TGI (NCI/ADR-RES ovarian): 92.7 µM
GI50 (OVCAR-3 ovarian): 2.01 µM
TGI (OVCAR-3 ovarian): 5.96 µM
GI50 (OVCAR-4 ovarian): 2.85 µM
TGI (OVCAR-4 ovarian): 25.1 µM
GI50 (OVCAR-5 ovarian): 25.3 µM
TGI (OVCAR-5 ovarian): > 100 µM
GI50 (OVCAR-8 ovarian): 4.87 µM
TGI (OVCAR-8 ovarian): > 100 µM
GI50 (PC-3 prostate): 5.61 µM
TGI (PC-3 prostate): > 100 µM
GI50 (RPMI-8226 leukemia): 3.93 µM
TGI (RPMI-8226 leukemia): > 100 µM
GI50 (SF-268 CNS): 8.63 µM
TGI (SF-268 CNS): 98.9 µM
GI50 (SF-295 CNS): 5.9 µM
TGI (SF-295 CNS): 53.7 µM
GI50 (SF-539 CNS): 3.33 µM
TGI (SF-539 CNS): 10.8 µM
GI50 (SK-MEL-2 melanoma): 21.8 µM
TGI (SK-MEL-2 melanoma): 61.5 µM
GI50 (SK-MEL-28 melanoma): 21.1 µM
TGI (SK-MEL-28 melanoma): 72.8 µM
GI50 (SK-MEL-5 melanoma): 2.73 µM
TGI (SK-MEL-5 melanoma): 12.5 µM
GI50 (SK-OV-3 ovarian): 28.5 µM
TGI (SK-OV-3 ovarian): > 100 µM
GI50 (SN12C renal): 5.42 µM
TGI (SN12C renal): 20 µM
GI50 (SNB-19 CNS): 4.86 µM
TGI (SNB-19 CNS): 49.2 µM
GI50 (SNB-75 CNS): 17 µM
TGI (SNB-75 CNS): > 100 µM
GI50 (SR leukemia): 0.488 µM
TGI (SR leukemia): > 100 µM
GI50 (SW-620 colon): 2.63 µM
TGI (SW-620 colon): > 100 µM
GI50 (T-47D breast): 8.32 µM
TGI (T-47D breast): > 100 µM
GI50 (TK-10 renal): 33.2 µM
TGI (TK-10 renal): 85.9 µM
GI50 (U251 CNS): 6.07 µM
TGI (U251 CNS): 79.6 µM
GI50 (UACC-257 melanoma): 5.71 µM
TGI (UACC-257 melanoma): > 100 µM
GI50 (UACC-62 melanoma): 4.33 µM
TGI (UACC-62 melanoma): 17.1 µM
GI50 (UO-31 renal): 18.8 µM
TGI (UO-31 renal): > 100 µM
